pIC50: −log10 of the molar value. Calls of active or inactive are those of the source. The rule behind the calls is not given here.
Biological target: methionyl-tRNA synthetase (Trypanosoma brucei brucei)
Test: inhibition of trypanosomal methionyl-tRNA synthetase – biochemical, luminescence, dose response, round 1, late-stage follow-up (AID 743153)
Conditions: recombinant T. brucei MetRS, luminescence (ATP depletion)

IC50	pIC50	SMILES
> 119 µM (inactive)	–	CCN(CC)C(=O)C(=O)c1cn(CC(=O)Nc2ccccc2OC)c2ccccc12
–	6.49	COc1ccc(CCN(C(=S)Nc2ccccc2)C2CC(=O)N(c3ccc(Cl)cc3)C2=O)cc1 (stereo unspecified)
> 39.5 µM (inactive)	–	CCC(=O)c1cn(CC(=O)Nc2cccc(C(F)(F)F)c2)c2ccccc12
> 39.5 µM (inactive)	–	COCCc1nc2ccc(C(=O)NCCc3nc4ccc(OC)cc4[nH]3)cc2o1
inactive	–	COc1ccccc1NC(=O)CSc1nnc2c(n1)[nH]c1ccc(C)cc12
–	5.62	Cc1ccc(C(=O)NCCc2nc3ccccc3[nH]2)cc1[N+](=O)[O-]
> 119 µM (inactive)	–	O=C(NCCc1nc2ccccc2[nH]1)c1c(F)cccc1F
> 119 µM (inactive)	–	CC(C)c1nc2ccc(C(=O)N(C)CCc3nc4ccc(F)cc4[nH]3)cc2o1
> 39.5 µM (inactive)	–	CC(=O)N(CCc1ccccc1)C1CC(=O)N(c2ccc(Br)cc2)C1=O (stereo unspecified)
–	5.93	O=C(Nc1ccc(F)c(Cl)c1)C1CC(=O)n2c(nc3ccccc32)N1 (stereo unspecified)
–	6.96	CCN(CC)C(=O)C(=O)c1cn(CC(=O)Nc2cccc(C(F)(F)F)c2)c2ccccc12
> 39.5 µM (inactive)	–	Cc1cccc2[nH]c(C3CCCN(C(=O)c4cccc5cccnc45)C3)nc12 (stereo unspecified)
> 119 µM (inactive)	–	O=C(Cn1cc(C(=O)C(=O)N2CCCC2)c2ccccc21)Nc1ccccc1
> 119 µM (inactive)	–	COc1ccccc1NC(=O)Cn1cc(C(=O)C(=O)N2CCOCC2)c2ccccc21
> 39.5 µM (inactive)	–	CCN(CC)C(=O)C(=O)c1cn(CC(=O)N(CC)c2ccccc2)c2ccccc12
–	6.20	O=C(CSc1nnc2c(n1)[nH]c1ccc(Br)cc12)NCc1ccccc1
> 13.2 µM (inactive)	–	Cc1ccc(C(=O)NCCc2nc3ccccc3[nH]2)cc1C
> 39.5 µM (inactive)	–	Cc1cc2cc(C(=O)N3CCCC(c4nc5ccccc5[nH]4)C3)ccc2o1 (stereo unspecified)
> 119 µM (inactive)	–	COc1ccc(NC(=O)CSc2nnc3c4cc(C)ccc4n(C)c3n2)cc1
> 119 µM (inactive)	–	CCN(CC)C(=O)C(=O)c1cn(CC(=O)N2CCCc3ccccc32)c2ccccc12
–	5.17	O=C(Cn1cc(C(=O)c2ccccc2)c2ccccc21)Nc1cccc(C(F)(F)F)c1
> 39.5 µM (inactive)	–	O=C(Cn1cc(C(=O)COc2ccccc2)c2ccccc21)Nc1cccc(C(F)(F)F)c1
> 39.5 µM (inactive)	–	CCc1ccc2[nH]c3nc(SCC(=O)NCc4cccc(OC)c4)nnc3c2c1
> 119 µM (inactive)	–	Cc1cccc2[nH]c(CCN(C)C(=O)c3cccc(C4CCNC4)c3)nc12 (stereo unspecified)
> 13.2 µM (inactive)	–	O=C(C(=O)N1CCOCC1)c1cn(CC(=O)N2CCCc3ccccc32)c2ccccc12
–	6.72	CNC(=S)N(CCc1ccccc1)C1CC(=O)N(c2ccc(Br)cc2)C1=O (stereo unspecified)
inactive	–	O=C(Cn1cc(C(=O)C2CC2)c2ccccc21)Nc1cccc(C(F)(F)F)c1
inactive	–	O=C(CSC1CC(=O)N(c2cccc(Cl)c2)C1=O)Nc1ccc(Br)cc1 (stereo unspecified)
> 119 µM (inactive)	–	Cc1ccc2[nH]c3nc(SCC(=O)Nc4ccc(C(F)(F)F)cc4)nnc3c2c1

Further lines, the compound ahead of its results:

SMILES	IC50	pIC50
COc1ccc(CCN(C(=O)c2cccc(F)c2)C2CC(=O)N(c3ccc(Br)cc3)C2=O)cc1 (stereo unspecified)	> 119 µM (inactive)	–
O=C(NCCc1nc2ccccc2[nH]1)c1ccc(Cl)c(Cl)c1	–	6.22
CC(=O)N(CCc1ccccc1)C1CC(=O)N(c2ccc(Cl)cc2)C1=O (stereo unspecified)	> 39.5 µM (inactive)	–
Cn1c(CCNC(=O)c2ccc(Cl)cc2)nc2ccccc21	> 39.5 µM (inactive)	–
O=C(Cn1cc(C(=O)C(=O)N2CCOCC2)c2ccccc21)NCc1ccccc1	> 119 µM (inactive)	–
CCc1ccc2c(c1)c1nnc(SCC(=O)Nc3ccc4c(c3)OCO4)nc1n2C	> 119 µM (inactive)	–
O=C(Cn1cc(C(=O)c2ccco2)c2ccccc21)Nc1cccc(C(F)(F)F)c1	–	5.86
O=C1CC(NCCc2ccccc2)C(=O)N1c1ccc(Br)cc1 (stereo unspecified)	> 119 µM (inactive)	–
COc1cccc(NC(=O)C2CC(=O)n3c(nc4ccccc43)N2)c1 (stereo unspecified)	inactive	–
CCCCn1c(CCNC(=O)c2ccc(F)cc2)nc2ccccc21	> 39.5 µM (inactive)	–
O=C(NCCc1nc2ccccc2[nH]1)c1ccc(Cl)cc1Cl	–	6.04
Cc1cccc(C(=O)NCCc2nc3ccccc3n2CCOc2ccccc2)c1	> 39.5 µM (inactive)	–
Cc1ccc(CNC(=O)CSc2nnc3c(n2)[nH]c2ccc(C)cc23)cc1	inactive	–
COc1ccc(NC(=O)C2CC(=O)n3c(nc4ccccc43)N2)cc1 (stereo unspecified)	> 119 µM (inactive)	–
CCN(C(=O)Cn1cc(C(=O)C(=O)N2CCOCC2)c2ccccc21)c1ccccc1	> 119 µM (inactive)	–
CCN(CCc1nc2ccc(C)cc2[nH]1)C(=O)c1ccc2ncccc2c1	> 119 µM (inactive)	–
CC(=O)c1cn(CC(=O)Nc2cccc(C(F)(F)F)c2)c2ccccc12	–	5.21
O=C(Cn1cc(C(=O)C(=O)N2CCOCC2)c2ccccc21)NCC1CCCO1 (stereo unspecified)	> 119 µM (inactive)	–
O=C(NCCc1nc2ccccc2[nH]1)c1ccc(Cl)cc1	–	5.31
CC1Cc2ccccc2N1C(=O)Cn1cc(C(=O)C(=O)N2CCOCC2)c2ccccc21 (stereo unspecified)	> 119 µM (inactive)	–
Cc1cccc(NC(=O)C2CC(=O)n3c(nc4ccccc43)N2)c1 (stereo unspecified)	> 39.5 µM (inactive)	–
CCN(CC)C(=O)C(=O)c1cn(CC(=O)Nc2cccc(OC)c2)c2ccccc12	–	5.73

Reference: PubChem BioAssay AID743153 (The Scripps Research Institute Molecular Screening Center, 2013)
